Assay results: PubChem BioAssay (NCI)
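Tested at 5 concentrations; 48 h exposure; 96-well plates; endpoints linearly interpolated, else capped at highest concentration. GI50: concentration for 50% inhibition of growth. TGI is the concentration that stops growth completely.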

What was measured:
Experiment in all cases: NCI tumour cell line growth inhibition, 48 h
DMS 114 small cell lung = test system: DMS 114 small cell lung
DMS 273 small cell lung = test system: DMS 273 small cell lung
IGROV1 ovarian = test system: IGROV1 ovarian
LXFL 529 NSCLC = test system: LXFL 529 NSCLC
M14 melanoma = test system: M14 melanoma
OVCAR-8 ovarian = test system: OVCAR-8 ovarian
SF-295 CNS = test system: SF-295 CNS
SNB-75 CNS = test system: SNB-75 CNS
KM20L2 colon = test system: KM20L2 colon
SNB-19 CNS = test system: SNB-19 CNS
MDA-MB-435 = test system: MDA-MB-435

SMILES | TGI (DMS 114 small cell lung) | TGI (DMS 273 small cell lung) | TGI (IGROV1 ovarian) | TGI (LXFL 529 NSCLC) | TGI (M14 melanoma) | TGI (OVCAR-8 ovarian) | TGI (SF-295 CNS) | TGI (SNB-75 CNS) | TGI (KM20L2 colon) | TGI (SNB-19 CNS) | GI50 (IGROV1 ovarian) | GI50 (M14 melanoma) | GI50 (MDA-MB-435) | TGI (MDA-MB-435) | GI50 (OVCAR-8 ovarian) | GI50 (SF-295 CNS) | GI50 (SNB-19 CNS) | GI50 (SNB-75 CNS) | GI50 (KM20L2 colon) | GI50 (LXFL 529 NSCLC)
COc1ccc(N=c2ssc3c(=S)ssc23)cc1 | 26 µM | 74.4 µM | 26.3 µM | 31.9 µM | 48.6 µM | 43.9 µM | > 100 µM | 75.6 µM |  |  |  |  |  |  |  |  |  |  |  | 
CC(=O)OC1CCn2nnc(CO[Si](C)(C)C(C)(C)C)c21 (stereo not given) | > 100 µM | > 100 µM | > 100 µM | > 100 µM | > 100 µM | > 100 µM | > 100 µM | > 100 µM | > 100 µM | > 100 µM |  |  |  |  |  |  |  |  |  | 
N#CC(C(=O)CCC(=O)Nc1cccc(Cl)c1)c1ccccc1 (stereo not given) | > 100 µM | > 100 µM | > 100 µM | > 100 µM | > 100 µM | > 100 µM | > 100 µM | > 100 µM | > 100 µM | > 100 µM |  |  |  |  |  |  |  |  |  | 
COc1cc(C(=O)C/C(CCC(=O)Nc2ccccc2[N+](=O)[O-])=N\NC(=O)CC#N)ccc1O |  | > 100 µM | > 100 µM | > 100 µM | > 100 µM | > 100 µM | > 100 µM | > 100 µM | > 100 µM | > 100 µM |  |  |  |  |  |  |  |  |  | 
CN(C)c1ccc(C=C2C(=O)OC(C)(C)OC2=O)cc1Br | > 100 µM | > 100 µM |  | > 100 µM | > 100 µM | > 100 µM | > 100 µM | > 100 µM | > 100 µM | > 100 µM |  |  |  |  |  |  |  |  |  | 
COC(=O)Cn1c2c(c3c(O)cccc31)C(=O)c1ccccc1-2 |  |  | > 100 µM |  | > 100 µM | > 100 µM | > 100 µM | > 100 µM |  | > 100 µM | > 100 µM | > 100 µM | > 100 µM | > 100 µM | > 100 µM | > 100 µM | > 100 µM | > 100 µM |  | 
COC1CC(OS(=O)(=O)c2ccc(C)cc2)C(OC(=O)c2ccccc2)C(C)O1 (stereo not given) | > 100 µM | > 10 µM | > 100 µM | > 100 µM | > 100 µM | > 100 µM | > 100 µM | > 100 µM | > 100 µM | > 100 µM | > 100 µM | > 100 µM |  |  | > 100 µM |  | > 100 µM | > 10 µM | > 100 µM | > 100 µM
COc1ccc(C(OCC2OC(n3ccc(NC(=O)c4ccccc4)nc3=O)C(O)C2O)(c2ccccc2)c2ccccc2)cc1 (stereo not given) |  |  | 3.86 µM |  | 3.62 µM | 3.22 µM | 3.49 µM | 22 µM |  | 9 µM |  |  |  | 5.73 µM |  |  |  |  |  | 
Cc1cc2c3ccc(C)[n+](C)c3ccc2n1C |  |  | 65.3 µM |  | > 100 µM | 29.8 µM | 15.6 µM | 14.7 µM |  | 14 µM | 3.14 µM | 17.2 µM | 5.12 µM | 21.9 µM | 1.53 µM | 2.34 µM | 2 µM | 3.15 µM |  | 
O=C(O)C/C=C/CC(=O)O |  |  | > 100 µM |  | > 100 µM | > 100 µM | > 100 µM | > 100 µM |  | > 100 µM |  |  |  | > 100 µM |  |  |  |  |  | 
